# Results published in publication PMC7339578, “Multiple circulating alkaloids and saponins from intravenous Kang-Ai injection inhibit human cytochrome P450 and UDP-glucuronosyltransferase isozymes: potential drug–drug interactions” (Chinese Medicine, 2020).
# Read-outs that look alike come from different tables or passages of the source.
# Tests used:
# [1] = Stability tests of analytes in rat plasma QC samples; assay type: in vitro ADME
# Procedure: […] The dilution integrity was investigated by analyzing six replicate samples with each analyte, and each analyte were diluted 10-fold with blank rat matrix. Furthermore, the diluted samples were analyzed using freshly prepared calibration curve to calculate RE and RSD, which should be no more than ± 15% as criterion.
# [2] = target: CYP2E1 (Homo sapiens, UniProt P05181); test: Inhibition of recombinant CYP2E1 (probe chlorzoxazone)
# Sequence of CYP2E1 (P05181 whole entry): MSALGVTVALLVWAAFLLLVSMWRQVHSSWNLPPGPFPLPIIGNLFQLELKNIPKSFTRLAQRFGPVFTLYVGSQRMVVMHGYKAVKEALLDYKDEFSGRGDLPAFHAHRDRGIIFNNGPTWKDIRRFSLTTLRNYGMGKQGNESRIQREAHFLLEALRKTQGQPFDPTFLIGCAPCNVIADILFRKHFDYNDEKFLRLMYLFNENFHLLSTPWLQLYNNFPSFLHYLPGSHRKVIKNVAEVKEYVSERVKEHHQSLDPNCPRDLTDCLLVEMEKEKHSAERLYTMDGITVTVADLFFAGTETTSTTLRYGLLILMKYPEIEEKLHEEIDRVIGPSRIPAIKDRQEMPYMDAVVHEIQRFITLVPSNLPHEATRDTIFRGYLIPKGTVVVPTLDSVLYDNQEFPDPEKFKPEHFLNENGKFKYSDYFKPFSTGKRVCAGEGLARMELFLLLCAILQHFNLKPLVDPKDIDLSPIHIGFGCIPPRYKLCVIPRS
# Procedure: Phase I incubation system (100 μL) contained Tris–HCl buffer (50 mM, pH = 7.4), MgCl2 (5 mM), each CYP isozyme, specific substrates, circulating compounds and NADPH (1 mM) as prescribed previously. After incubation (37 °C, 60 min), the reaction was terminated by ice-cold acetonitrile (100 μL), following by centrifugation at 13,800g for 10 min. The supernatant (8 μL) was acquired for ultra-high-performance liquid chromatography (UHPLC) system (Waters, Manchester, UK) analysis.
# After optimization of incubation conditions (Additional file 1: Fig. S1), the substrates were incubated with each CYP isozyme at different protein concentrations (0.05 mg/mL for CYP1A2 and 3A4; 0.1 mg/mL for CYP2A6, 2B6, 2C8, 2C9, 2C19 and 2E1) in the absence (control) and presence of different mixture or herbal compounds (Kang-Ai injection and samples that Kang-Ai injection was diluted 10 times; 1, 10, and 100 μM for matrine and oxymatrine; 0.1, 1, 10 and 100 μM for astragalosides and ginsenosides).
# The half-inhibition concentration (IC50) values were determined by non-linear regression analysis. […] The inhibition mechanism towards corresponding CYP and UGT isoforms were further explored.
# The inhibition constant (Ki) values were obtained by multiple concentrations of substrates in the absence or presence of multiple concentrations of herbal compounds as described previously. […] (1)–(3), respectively. The model with the smallest Akaike information criterion (AIC) and Schwartz information criterion (SC) values was considered as the best model, following the obtained appropriate Ki values. Model fitting and parameter estimation were performed using Graphpad Prism V5 software (SanDiego, CA).
# [3] = target: CYP2C9 (Homo sapiens, UniProt P11712); test: Inhibition of recombinant CYP2C9 (probe tolbutamide); assay type: in vitro ADME; conditions: mean ± SD of triplicate, unit not given (IC50 classes in μM)
# Sequence of CYP2C9 (P11712 whole entry): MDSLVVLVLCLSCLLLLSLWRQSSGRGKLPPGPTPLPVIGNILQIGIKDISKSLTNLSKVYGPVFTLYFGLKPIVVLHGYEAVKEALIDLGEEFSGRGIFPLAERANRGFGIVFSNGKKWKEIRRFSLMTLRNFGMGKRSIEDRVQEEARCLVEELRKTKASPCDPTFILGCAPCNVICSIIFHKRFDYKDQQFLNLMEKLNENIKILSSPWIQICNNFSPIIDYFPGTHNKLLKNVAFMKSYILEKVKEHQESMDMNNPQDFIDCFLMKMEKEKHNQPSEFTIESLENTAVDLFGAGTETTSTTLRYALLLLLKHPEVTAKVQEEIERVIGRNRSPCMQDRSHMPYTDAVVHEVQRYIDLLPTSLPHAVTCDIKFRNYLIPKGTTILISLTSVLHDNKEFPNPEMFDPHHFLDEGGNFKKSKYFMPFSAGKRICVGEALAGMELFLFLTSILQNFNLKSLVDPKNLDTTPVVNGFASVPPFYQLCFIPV
# Procedure: (§1) In this study, phenacetin (100 μM), coumarin (100 μM), bupropion (100 μM), paclitaxel (60 μM), tolbutamide (200 μM), mephenytoin (100 μM), chlorzoxazone (200 μM) and nifedipine (40 μM) have been used as the probe substrates for CYP1A2, 2A6, 2B6, 2C8, 2C9, 2C19, 2E1 and 3A4, respectively.
# [4] = target: T1, CYP1A2 (Homo sapiens, UniProt P05177); test: Inhibition of recombinant CYP1A2 (probe phenacetin); assay type: in vitro ADME
# T1 construct: purchased Corning Biosciences 456203
# T1 sequence (P05177 1-516): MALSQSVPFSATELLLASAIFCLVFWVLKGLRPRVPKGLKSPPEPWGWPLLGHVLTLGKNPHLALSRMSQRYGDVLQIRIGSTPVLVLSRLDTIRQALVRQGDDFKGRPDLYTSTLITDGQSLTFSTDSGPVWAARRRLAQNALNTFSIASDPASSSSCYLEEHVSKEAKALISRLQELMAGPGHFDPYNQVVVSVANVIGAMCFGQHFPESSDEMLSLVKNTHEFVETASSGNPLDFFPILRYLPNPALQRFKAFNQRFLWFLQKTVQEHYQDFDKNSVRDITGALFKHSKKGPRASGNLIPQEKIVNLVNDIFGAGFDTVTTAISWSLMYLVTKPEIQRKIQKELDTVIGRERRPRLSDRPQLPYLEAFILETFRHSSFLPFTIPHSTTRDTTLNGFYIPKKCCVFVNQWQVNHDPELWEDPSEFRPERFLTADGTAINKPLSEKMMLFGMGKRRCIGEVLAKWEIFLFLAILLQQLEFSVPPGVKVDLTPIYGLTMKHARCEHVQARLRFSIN
# Procedure: as §1
# [5] = rat plasma, nominal conc. 20 nM
# [6] = rat plasma, nominal conc. 100 nM
# [7] = rat plasma, nominal conc. 400 nM
# [8] = recombinant isozyme, read-out: IC50 towards CYP2C9
# [9] = recombinant isozyme, mean ± SD of triplicate, unit not given (IC50 classes in μM), read-out: IC50 towards CYP1A2
Compound,"At -80 °C for 48 h, Mean±SD [1, 5]","At -80 °C for 48 h, RE [1, 5]","Extracted samples at 8 °C for 18 h, Mean±SD [1, 5]","Extracted samples at 8 °C for 18 h, RE [1, 5]","Short-term stability at room temperature for 6 h, Mean±SD [1, 5]","Short-term stability at room temperature for 6 h, RE [1, 5]","Three freeze-thaw cycles (-80 °C ↔ 23 °C), Mean±SD [1, 5]","Three freeze-thaw cycles (-80 °C ↔ 23 °C), RE [1, 5]","At -80 °C for 48 h, Mean±SD [1, 6]","At -80 °C for 48 h, RE [1, 6]","Extracted samples at 8 °C for 18 h, Mean±SD [1, 6]","Extracted samples at 8 °C for 18 h, RE [1, 6]","Short-term stability at room temperature for 6 h, RE [1, 6]","Three freeze-thaw cycles (-80 °C ↔ 23 °C), Mean±SD [1, 6]","Three freeze-thaw cycles (-80 °C ↔ 23 °C), RE [1, 6]","At -80 °C for 48 h, Mean±SD [1, 7]","At -80 °C for 48 h, RE [1, 7]","Extracted samples at 8 °C for 18 h, Mean±SD [1, 7]","Extracted samples at 8 °C for 18 h, RE [1, 7]",IC50 [2],other results
"CC(C)=CCC[C@](C)(O)[C@H]1CC[C@]2(C)[C@@H]1[C@H](O)C[C@@H]1[C@@]3(C)CC[C@H](O)C(C)(C)[C@@H]3[C@@H](O[C@@H]3O[C@H](CO)[C@@H](O)[C@H](O)[C@H]3O[C@@H]3O[C@H](CO)[C@@H](O)[C@H](O)[C@H]3O)C[C@]12C [Compound C7, Ginsenoside Rf]",21.60 ± 0.37 nM,9.41%,19.73 ± 2.64 nM,13.56%,20.44 ± 2.11 nM,11.15%,22.07 ± 0.56 nM,13.46%,100.58 ± 11.11 nM,13.37%,93.83 ± 2.15 nM,-8.56%,-10.30%,101.34 ± 13.26 nM,-13.01%,428.42 ± 28.06 nM,14.40%,392.21 ± 39.26 nM,-12.43%,> 100 µM,"Short-term stability at room temperature for 6 h, Mean±SD [1, 6]: 96.37 ± 9.64 nM; Short-term stability at room temperature for 6 h, Mean±SD [1, 7]: 357.16 ± 4.75 nM; Short-term stability at room temperature for 6 h, RE [1, 7]: -11.69%; Three freeze-thaw cycles (-80 °C ↔ 23 °C), Mean±SD [1, 7]: 398.07 ± 39.06 nM; Three freeze-thaw cycles (-80 °C ↔ 23 °C), RE [1, 7]: -10.52%; IC50 [3, 8]: > 100 µM; IC50 [4, 9]: > 100 µM"
"O=C1CCC[C@@H]2[C@H]3CCC[N+]4([O-])CCC[C@@H](CN12)[C@@H]34 (stereo partly drawn) [Compound A3, Oxymatrine]",,,,,,,,,,,,,,,,,,,,> 100 µM,"Three freeze-thaw cycles (-80 °C ↔ 23 °C), Mean±SD ([1]; rat, 80 nM): 82.92 ± 3.13 nM; Three freeze-thaw cycles (-80 °C ↔ 23 °C), Mean±SD ([1]; rat, 400 nM): 406.54 ± 20.44 nM; Three freeze-thaw cycles (-80 °C ↔ 23 °C), Mean±SD ([1]; rat, 1600 nM): 1588.35 ± 117.83 nM; Short-term stability at room temperature for 6 h, Mean±SD ([1]; rat, 6 h, 80 nM): 81.69 ± 3.23 nM; Short-term stability at room temperature for 6 h, Mean±SD ([1]; rat, 6 h, 400 nM): 391.75 ± 44.05 nM; Short-term stability at room temperature for 6 h, Mean±SD ([1]; rat, 6 h, 1600 nM): 1629.42 ± 112.91 nM; Extracted samples at 8 °C for 18 h, Mean±SD ([1]; rat, 18 h, 80 nM): 76.52 ± 2.34 nM; Extracted samples at 8 °C for 18 h, Mean±SD ([1]; rat, 18 h, 400 nM): 410.83 ± 21.99 nM; Extracted samples at 8 °C for 18 h, Mean±SD ([1]; rat, 18 h, 1600 nM): 1553.29 ± 127.31 nM; At -80 °C for 48 h, Mean±SD ([1]; rat, 48 h, 80 nM): 83.89 ± 6.74 nM; At -80 °C for 48 h, Mean±SD ([1]; rat, 48 h, 400 nM): 422.79 ± 10.74 nM; At -80 °C for 48 h, Mean±SD ([1]; rat, 48 h, 1600 nM): 1578.58 ± 168.35 nM; IC50 ([3]; IC50 towards CYP2C9, recombinant isozyme): > 100 µM; IC50 [4]: > 100 µM"
"CC(C)=CCC[C@](C)(O[C@@H]1O[C@H](CO)[C@@H](O)[C@H](O)[C@H]1O)[C@H]1CC[C@]2(C)[C@@H]1[C@H](O)C[C@@H]1[C@@]3(C)CC[C@H](O[C@@H]4O[C@H](CO)[C@@H](O)[C@H](O)[C@H]4O[C@@H]4O[C@H](CO)[C@@H](O)[C@H](O)[C@H]4O)C(C)(C)[C@@H]3CC[C@]12C [Compound D2, Ginsenoside Rd]",20.86 ± 2.70 nM,13.40%,21.52 ± 1.04 nM,11.29%,20.41 ± 1.88 nM,-8.78%,21.38 ± 0.85 nM,11.74%,94.76 ± 3.45 nM,-9.18%,93.92 ± 4.07 nM,-9.39%,-8.93%,101.66 ± 11.99 nM,13.24%,419.98 ± 19.52 nM,10.54%,411.97 ± 35.80 nM,9.32%,> 100 µM,"Short-term stability at room temperature for 6 h, Mean±SD [1, 6]: 96.61 ± 5.06 nM; Short-term stability at room temperature for 6 h, Mean±SD [1, 7]: 362.78 ± 5.91 nM; Short-term stability at room temperature for 6 h, RE [1, 7]: -10.80%; Three freeze-thaw cycles (-80 °C ↔ 23 °C), Mean±SD [1, 7]: 397.28 ± 35.89 nM; Three freeze-thaw cycles (-80 °C ↔ 23 °C), RE [1, 7]: 9.66%; IC50 [3, 8]: > 100 µM; IC50 [4, 9]: > 100 µM"
"CC(C)=CCC[C@](C)(O[C@@H]1O[C@H](CO[C@@H]2O[C@@H](CO)[C@H](O)[C@H]2O)[C@@H](O)[C@H](O)[C@H]1O)[C@H]1CC[C@]2(C)[C@@H]1[C@H](O)C[C@@H]1[C@@]3(C)CC[C@H](O[C@@H]4O[C@H](CO)[C@@H](O)[C@H](O)[C@H]4O[C@@H]4O[C@H](CO)[C@@H](O)[C@H](O)[C@H]4O)C(C)(C)[C@@H]3CC[C@]12C [Compound D3, Ginsenoside Rc]",21.79 ± 0.54 nM,11.90%,21.26 ± 0.64 nM,9.82%,21.00 ± 1.54 nM,10.56%,22.31 ± 0.31 nM,12.70%,92.14 ± 3.15 nM,-10.73%,91.90 ± 3.48 nM,-12.09%,-13.45%,107.11 ± 6.52 nM,11.88%,421.69 ± 7.21 nM,7.06%,432.26 ± 28.61 nM,12.97%,> 100 µM,"Short-term stability at room temperature for 6 h, Mean±SD [1, 7]: 366.80 ± 3.85 nM; Short-term stability at room temperature for 6 h, RE [1, 7]: -9.03%; Three freeze-thaw cycles (-80 °C ↔ 23 °C), Mean±SD [1, 7]: 413.15 ± 9.39 nM; Three freeze-thaw cycles (-80 °C ↔ 23 °C), RE [1, 7]: 5.12%; Short-term stability at room temperature for 6 h, Mean±SD ([1]; rat, 6 h, 100 nM): 94.62 ± 9.91 nM; IC50 towards CYP2C9 ([3]; recombinant isozyme): Activation; IC50 [4, 9]: > 100 µM"
